Measurements: patent US20250228835A1, “PYRIDINYLOXYPYRIDINES AND RELATED COMPOUNDS AND THEIR USE IN TREATING MEDICAL CONDITIONS” (Rectify Pharmaceuticals, Inc., priority 2024, published 2025)
pEC50: −log10 of the molar value.

Tests used:
[1] = target: T1, ABCD2 WT (Homo sapiens, UniProt Q9UBJ2); test: D2 correction dose-response assay: ABCD2 WT HiBit protein expression; assay type: cell-based; conditions: HEK-293/ABCD2 WT cells, 24 hours treatment, HiBit luminescence; class combines EC50 and Mean MaxAct (fold); read-out: ABCD2 WT EC50, Emax
T1 construct: expressed in transfected cells
T1 sequence (Q9UBJ2 1-740): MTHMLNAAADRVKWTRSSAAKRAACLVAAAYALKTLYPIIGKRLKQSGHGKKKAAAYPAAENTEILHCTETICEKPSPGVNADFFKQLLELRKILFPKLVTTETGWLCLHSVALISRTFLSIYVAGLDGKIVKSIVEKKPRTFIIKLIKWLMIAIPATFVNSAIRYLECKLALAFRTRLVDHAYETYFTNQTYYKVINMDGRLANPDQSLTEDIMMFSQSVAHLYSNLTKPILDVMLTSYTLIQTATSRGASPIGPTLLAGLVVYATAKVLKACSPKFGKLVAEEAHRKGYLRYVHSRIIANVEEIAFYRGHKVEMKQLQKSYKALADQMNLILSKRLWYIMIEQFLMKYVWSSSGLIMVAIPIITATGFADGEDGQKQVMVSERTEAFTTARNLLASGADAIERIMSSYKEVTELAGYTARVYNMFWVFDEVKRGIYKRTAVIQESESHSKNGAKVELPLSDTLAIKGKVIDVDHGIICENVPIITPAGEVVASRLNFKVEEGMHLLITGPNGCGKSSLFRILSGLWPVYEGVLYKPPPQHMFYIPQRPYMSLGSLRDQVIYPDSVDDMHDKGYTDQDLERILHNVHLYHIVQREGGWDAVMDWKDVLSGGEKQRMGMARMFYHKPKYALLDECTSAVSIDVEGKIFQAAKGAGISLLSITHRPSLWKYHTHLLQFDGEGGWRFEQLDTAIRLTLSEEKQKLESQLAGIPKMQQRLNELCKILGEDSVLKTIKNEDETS
Procedure: Exemplary compounds were evaluated in a D2 correction dose-response assay.
(§1) To assess activity against ABCD2, the compounds were screened in an assay measuring protein expression, using cells transfected with cDNA encoding HiBit-tagged ABCD2 wild-type. Here we describe an assay for measuring the expression of the wild type of human ABCD2 (henceforth referred to as ABCD2 WT) and the use of this assay to measure the efficacy of compounds to increase the expression of ABCD2 WT. The assay was designed to characterize the efficacy and potency of compounds to increase the expression of ABCD2 WT by calculating an Emax and EC50 value. HEK-293 cells stably expressing ABCD2 WT (HEK-293/ABCD2 WT) were used for this assay and were maintained at 37° C. (5% CO2, humidified) in Dulbecco's Modified Eagle Medium (DMEM, Gibco product #12100) supplemented with 10% fetal bovine serum (Biosera product #FB-1058/500), 1% PenStrep (HDB product #15140-122), and 0.5 mg/mL puromycin (Gibco product #A11138-03). For the assay, the HEK-293/ABCD2 WT cells were seeded in white/opaque 384-well plates (Corning product #3570) at 10,000 cells/well in 20 μl growth medium and allowed to settle for 4 hours at 37° C. (5% CO2, humidified). Compound serial dilutions are prepared in DMSO as three hundred times (333×) the final concentration and using a dilution factor of 3 using Bravo (Agilent). After the four-hour incubation period, 60 nL of DMSO solutions are transferred to the assay plate.
(§2) Dose response curves include eleven doses with the top final concentration at 30 μM in 0.3% DMSO. Liquid handling is performed with ECHO 550 Acoustic Liquid Handler (Labcyte). After addition of compound treatment, cells are incubated for 24 hours at 37° C. (5% CO2, humidified). After the 24-hour treatment, plates are allowed to equilibrate to room temperature for 10 minutes. Using Dragonfly Automated Liquid Handler (TTP LabTech), 20 μl of HiBit lytic assay reagent (Promega, product #N3040), which is prepared according to manufacturer's instructions, is added to each well. The plates are rotated at room temperature for 2 minutes and incubated for 1 hour at 25° C. before luminescent signal is acquired using an EnVision Multimode Plate Reader (PerkinElmer).

[2] = target: T2, ABCB4 WT (Homo sapiens, UniProt P21439); test: ABCB4 WT assay: HiBit protein expression; assay type: cell-based; conditions: HEK-293 cells stably expressing HiBit-tagged ABCB4 WT; 24 h treatment; top concentration 30 μM; read-out: ABCB4 WT EC50, Emax
T2 construct: expressed in transfected cells
Text: To assess activity against ABCB4, compounds were screened in an assay measuring protein expression, using cells transfected with cDNA encoding HiBit-tagged ABCB4 wild-type.
as §1, with “Described here is” for “To assess activity against ABCD2, the compounds were screened in an assay measuring protein expression, using cells transfected with cDNA encoding HiBit-tagged ABCD2 wild-type. Here we describe”, “ABCB4” for “ABCD2”, “(HEK-293/ABCB4” for “(HEK-293/ABCD2”, “HEK-293/ABCB4” for “HEK-293/ABCD2”
as §2
Results are presented below in Table 5 for ABCB4 WT.

T2 sequence (P21439 whole entry): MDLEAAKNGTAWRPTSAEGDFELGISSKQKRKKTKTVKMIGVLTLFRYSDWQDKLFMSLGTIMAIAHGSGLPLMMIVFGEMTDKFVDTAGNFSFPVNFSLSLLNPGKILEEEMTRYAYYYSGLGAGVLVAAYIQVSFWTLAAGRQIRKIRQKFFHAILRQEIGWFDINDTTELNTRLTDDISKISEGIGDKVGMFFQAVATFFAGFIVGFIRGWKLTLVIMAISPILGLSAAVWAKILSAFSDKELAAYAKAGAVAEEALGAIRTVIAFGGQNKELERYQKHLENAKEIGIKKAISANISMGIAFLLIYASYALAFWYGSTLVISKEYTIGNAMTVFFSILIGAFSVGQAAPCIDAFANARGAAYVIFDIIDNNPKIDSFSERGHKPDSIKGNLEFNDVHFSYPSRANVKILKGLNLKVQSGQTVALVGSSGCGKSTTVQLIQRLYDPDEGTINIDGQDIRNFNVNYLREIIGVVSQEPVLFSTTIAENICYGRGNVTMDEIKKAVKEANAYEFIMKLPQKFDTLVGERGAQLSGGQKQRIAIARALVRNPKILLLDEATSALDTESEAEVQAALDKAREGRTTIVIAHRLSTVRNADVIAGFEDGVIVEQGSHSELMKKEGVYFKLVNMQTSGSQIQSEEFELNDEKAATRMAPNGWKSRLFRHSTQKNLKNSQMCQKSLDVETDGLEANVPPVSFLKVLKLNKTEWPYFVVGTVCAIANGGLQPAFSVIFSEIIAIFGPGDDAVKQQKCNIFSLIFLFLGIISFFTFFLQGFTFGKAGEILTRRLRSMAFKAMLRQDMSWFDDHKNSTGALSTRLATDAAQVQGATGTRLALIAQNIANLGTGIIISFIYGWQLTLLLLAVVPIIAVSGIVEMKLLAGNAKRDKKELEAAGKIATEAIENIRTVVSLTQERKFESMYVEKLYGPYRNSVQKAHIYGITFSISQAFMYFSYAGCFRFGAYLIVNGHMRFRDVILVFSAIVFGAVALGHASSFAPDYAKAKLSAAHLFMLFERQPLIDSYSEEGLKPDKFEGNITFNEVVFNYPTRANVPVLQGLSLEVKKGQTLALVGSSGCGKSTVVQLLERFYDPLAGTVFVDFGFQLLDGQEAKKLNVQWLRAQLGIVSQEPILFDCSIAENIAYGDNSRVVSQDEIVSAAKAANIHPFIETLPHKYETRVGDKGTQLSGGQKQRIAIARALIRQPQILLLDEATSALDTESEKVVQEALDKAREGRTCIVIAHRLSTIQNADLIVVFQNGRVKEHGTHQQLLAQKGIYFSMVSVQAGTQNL

| Structure (SMILES) | pEC50 [1] | pEC50 [2] |
| --- | --- | --- |
| Cc1cc(C)c(Oc2nc(-c3cncc(C#N)c3)ccc2NS(=O)(=O)c2cccnc2)c(C2CC2)n1 [Compound I-147] | > 6.00 | > 4.60 |
| Cc1nc(C2COC2)nc(C2CC2)c1Oc1nc(-c2cncc(C#N)c2)ccc1NS(C)(=O)=O [Compound I-143] | > 6.00 | > 6.00 |
| Cc1cc(C2CC2)nc(C2CC2)c1Oc1nc(-c2cncc(C#N)c2)ccc1NS(C)(=O)=O [Compound I-161] | < 4.60 | > 6.00 |
| Cc1nc(C(F)(F)F)nc(C2CC2)c1Oc1nc(-c2cncc(C#N)c2)ccc1NS(C)(=O)=O [Compound I-145] | > 6.00 | > 6.00 |
| Cc1nc(N2CC3(COC3)C2)nc(C)c1Oc1nc(-c2cncc(C#N)c2)ccc1NS(C)(=O)=O [Compound I-160] | < 4.60 | > 4.60 |
| Cc1nc(C2CC2)cc(C2CC2)c1Oc1nc(-c2cncc(C#N)c2)ccc1NS(C)(=O)=O [Compound I-162] | < 4.60 | ≤ 4.60 |
| Cc1nc(C(F)(F)F)nc(C2CC2)c1Oc1nc(-c2cncc(C#N)c2)ccc1S(=O)(=O)Nc1cccnc1 [Compound I-310] | 5.00 to 6.00 | ≤ 4.60 |
| Cc1cc(C(F)(F)F)nc(C2CC2)c1Oc1nc(-c2cncc(C#N)c2)ccc1S(=O)(=O)NC1COC1 [Compound I-305] | 5.00 to 6.00 | ≤ 4.60 |
| Cc1cc(C(F)(F)F)nc(C2CC2)c1Oc1nc(-c2cncc(C#N)c2)ccc1S(=N)(=O)C1CCOCC1 (centres unmarked) [Compound I-301] | 4.60 to 5.00 | ≤ 4.60 |
| Cc1cc(C(F)(F)F)nc(C2CC2)c1Oc1nc(-c2cncc(C#N)c2)ccc1S(=N)(=O)c1cnccn1 (centres unmarked) [Compound I-297] | 5.00 to 6.00 | 5.00 to 6.00 |

Continued, values first:

| pEC50 [1] | pEC50 [2] | Structure (SMILES) |
| --- | --- | --- |
| 5.00 to 6.00 | > 6.00 | CNS(=O)(=O)c1ccc(-c2cncc(C#N)c2)nc1Oc1c(C)cc(C(F)(F)F)nc1C1CC1 [Compound I-293] |
| > 6.00 | ≤ 4.60 | Cc1cc(C)c(Oc2nc(-c3ccc(C#N)nc3C)ccc2NS(C)(=O)=O)c(C)c1 [Compound I-6] |
| < 4.60 | ≤ 4.60 | Cc1cc(C)c(Oc2nc(-c3cccc(Cl)c3)ccc2S(N)(=O)=O)c(C)c1 [Compound I-102] |
| > 6.00 | > 6.00 | Cc1cc(C)c(Oc2nc(-c3cnc(C#N)c(Cl)c3)ccc2NS(C)(=O)=O)c(C)n1 [Compound I-8] |
| 5.00 to 6.00 | ≤ 4.60 | Cc1cc(C(F)(F)F)nc(C2CC2)c1Oc1nc(-c2cncc(Cl)c2)ccc1N(C)S(C)(=O)=O [Compound I-153] |
| 5.00 to 6.00 | 5.00 to 6.00 | Cc1nc(C)c(Oc2nc(-c3cncc(Cl)c3)ccc2NS(C)(=O)=O)c(C2CC2)n1 [Compound I-164] |
| > 6.00 | ≤ 4.60 | Cc1cc(C)c(Oc2nc(-c3cncc(C#N)c3)ncc2NS(C)(=O)=O)c(C)c1 [Compound I-10] |
| > 6.00 | ≤ 4.60 | Cc1cc(C)c(Oc2nc(-c3cncc(Cl)c3)ncc2NS(C)(=O)=O)c(C)c1 [Compound I-9] |
| > 6.00 | > 6.00 | Cc1cc(C(F)F)nc(C2CC2)c1Oc1nc(-c2cncc(C#N)c2)ccc1NS(C)(=O)=O [Compound I-137] |
| > 6.00 | > 6.00 | Cc1cc(C(F)(F)F)nc(C2CC2)c1Oc1nc(-c2cncc(Cl)c2)ccc1NS(C)(=O)=O [Compound I-158] |
| 5.00 to 6.00 | > 6.00 | Cc1cc(C(F)(F)F)nc(C2CC2)c1Oc1nc(-c2cncc(C#N)c2)ccc1S(=O)(=O)N(C)C [Compound I-291] |
| > 6.00 | > 6.00 | Cc1cc(C)c(Oc2nc(-c3cncc(C#N)c3)ccc2NS(C)(=O)=O)c(C)n1 [Compound I-5] |
| 5.00 to 6.00 | ≤ 4.60 | CNS(=O)(=O)c1ccc(-c2cncc(C#N)c2)nc1Oc1c(C)cc(C2CC2)nc1C1CC1 [Compound I-298] |
| < 4.60 | ≤ 4.60 | CNS(=O)(=O)c1ccc(-c2cncc(C#N)c2)nc1Oc1nc(C)sc1C1CC1 [Compound I-312] |
| 5.00 to 6.00 | 5.00 to 6.00 | Cc1cc(C)c(Oc2nc(-c3cncc(Cl)c3)ccc2S(=O)(=O)N(C)C)c(C)c1 [Compound I-97] |
